The record followed here is patent US9873680B2 (Gilead Sciences, Inc., priority 2014, dated 2018).

For one data set, the system named is HIV-IIIb. The experiment in a line: Test A: Antiviral Assay in MT4 Cells. It is filed as cell-based, HIV-1. The following applies: Human immunodeficiency virus 1, MT4, 120 h; 0.2 μM drug concentration; MT-4 cells infected with HIV-IIIb, 5 days; values normalized to 100%; average over time; read-out: % inhibition at 0.2 μM (percent inhibition of virus-induced cell killing). In a few lines:
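MT-4 cells were preinfected with HIV-IIIb […]. Cell viability, as protection from viral cytopathic effect, was read by CellTiter-Glo chemiluminescence.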

Data set [1] is described as follows: Test B: Cytotoxicity Assay. It is filed as cell-based. Particulars: human, uninfected MT-4 cells, CellTiter-Glo. As for the experimental part: Test B: Cytotoxicity Assay Compound cytotoxicity and the corresponding CC50 values was determined using the same protocol as described in the antiviral assay (Test A) except that uninfected cells were used.
A general note: Cellular ATP, detected with luciferase, serves as a proxy for viable cell number.

For the compound `Cn1nc(NS(C)(=O)=O)c2c(Cl)ccc(-c3ccc(C#CC4(O)CO[C@H]5OCC[C@H]54)nc3[C@H](Cc3cc(F)cc(F)c3)NC(=O)Cn3nc(C(F)(F)F)c4c3C(F)(F)[C@@H]3C[C@H]43)c21` (stereo partly drawn) [Compound 50B, N-((1S)-1-(3-(4-chloro-1-methyl-3-(methylsulfonamido)-1H-indazol-7-yl)-6-(((3aS,6aR)-3-hydroxyhexahydrofuro[2,3-b]furan-3-yl)ethynyl)pyridin-2-yl)-2-(3,5-difluorophenyl)ethyl)-2-((3bS,4aR)-5,5-difluoro-3-(trifluoromethyl)-3b,4,4a,5-tetrahydro-1H-cyclopropa[3,4]cyclopenta[1,2-c]pyrazol-1-yl)acetamide], the inhibition (in general, the relative decrease from the control value, in per cent) at 0.2 µM with HIV-IIIb came to 92%. The half-maximal cytotoxic concentration (CC50) (in general, the concentration giving 50% cytotoxicity) at 5 days in data set [1] is 10 µM.
On the same counts, the results for `Cn1nc(NS(C)(=O)=O)c2c(Cl)ccc(-c3ccc(C#CC4(O)CC5(COC5)C4)nc3[C@H](Cc3cc(F)cc(F)c3)NC(=O)Cn3nc(C(F)(F)F)c4c3C(F)(F)[C@@H]3C[C@H]43)c21` [Compound 51B, N—((S)-1-(3-(4-chloro-1-methyl-3-(methylsulfonamido)-1H-indazol-7-yl)-6-((6-hydroxy-2-oxaspiro[3.3]heptan-6-yl)ethynyl)pyridin-2-yl)-2-(3,5-difluorophenyl)ethyl)-2-((3bS,4aR)-5,5-difluoro-3-(trifluoromethyl)-3b,4,4a,5-tetrahydro-1H-cyclopropa[3,4]cyclopenta[1,2-c]pyrazol-1-yl)acetamide] are 89% and 19.8 µM.
On the same counts, the results for `Cn1nc(NS(C)(=O)=O)c2c(Cl)ccc(-c3ccc(C#CC4(O)CO[C@H]5OCC[C@H]54)nc3[C@H](Cc3cc(F)cc(F)c3)NC(=O)Cn3nc(C(F)F)c4c3C(F)(F)[C@@H]3C[C@H]43)c21` (stereo partly drawn) [Compound 52, N-((1S)-1-(3-(4-chloro-1-methyl-3-(methylsulfonamido)-1H-indazol-7-yl)-6-(((3aS,6aR)-3-hydroxyhexahydrofuro[2,3-b]furan-3-yl)ethynyl)pyridin-2-yl)-2-(3,5-difluorophenyl)ethyl)-2-((3bS,4aR)-3-(difluoromethyl)-5,5-difluoro-3b,4,4a,5-tetrahydro-1H-cyclopropa[3,4]cyclopenta[1,2-c]pyrazol-1-yl)acetamide] are 96% and 17.1 µM.
In the case of `Cn1nc(NS(C)(=O)=O)c2c(Cl)ccc(-c3ccc(C#CC4CNCCO4)nc3[C@H](Cc3cc(F)cc(F)c3)NC(=O)Cn3nc(C(F)(F)F)c4c3C(F)(F)[C@@H]3C[C@H]43)c21` (stereo partly drawn) [Compound 53B, N-((1S)-1-(3-(4-chloro-1-methyl-3-(methylsulfonamido)-1H-indazol-7-yl)-6-(morpholin-2-ylethynyl)pyridin-2-yl)-2-(3,5-difluorophenyl)ethyl)-2-((3bS,4aR)-5,5-difluoro-3-(trifluoromethyl)-3b,4,4a,5-tetrahydro-1H-cyclopropa[3,4]cyclopenta[1,2-c]pyrazol-1-yl)acetamide], in the data set with HIV-IIIb, the inhibition at 0.2 µM was found to be 100%. In data set [1], this compound came in with a CC50 at 5 days of 6.81 µM.
In the case of `Cn1nc(NS(C)(=O)=O)c2c(Cl)ccc(-c3ccc(C#CC(C)(O)c4ccco4)nc3[C@H](Cc3cc(F)cc(F)c3)NC(=O)Cn3nc(C(F)(F)F)c4c3C(F)(F)[C@@H]3C[C@H]43)c21` (stereo partly drawn) [Compound 54, N-((1S)-1-(3-(4-chloro-1-methyl-3-(methylsulfonamido)-1H-indazol-7-yl)-6-(3-(furan-2-yl)-3-hydroxybut-1-yn-1-yl)pyridin-2-yl)-2-(3,5-difluorophenyl)ethyl)-2-((3bS,4aR)-5,5-difluoro-3-(trifluoromethyl)-3b,4,4a,5-tetrahydro-1H-cyclopropa[3,4]cyclopenta[1,2-c]pyrazol-1-yl)acetamide], in the data set with HIV-IIIb, the inhibition at 0.2 µM was 100%. The compound also gave a 50% cytotoxic concentration (CC50) at 5 days in data set [1] of 11.6 µM.
